The values below are quoted from earlier work in US8067464B2, “Compositions and methods using apocynin compounds and nitric oxide donors” (Nitromed, Inc., priority 2004, dated 2011).

Regarding `O=[N+]([O-])O[C@H]1CO[C@H]2[C@@H]1OC[C@H]2O[N+](=O)[O-]` [isosorbide dinitrate, 1,4,3,6-dianhydro-D-glucitol-2,5-dinitrate], the “solubility in organic solvents” value (organic solvents such as ethanol, ether and chloroform) is “freely soluble”. Moreover, where the note is “water”, the solubility in water entry is “sparingly soluble”.
